Laboratory results from ChEMBL document CHEMBL1201862, “PubChem BioAssay data set” (2004).
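Compound exposure: 48 hours, 5 concentrations, 96-well plates. GI50 marks 50% less growth.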 Activity calls are given as the source filed them. No stated cut-off is given here; in the data, active = GI50 up to about 1.1 µM and inactive = higher.

What was measured:
Experiment in all cases: NCI-60 cell line screen, 48 h
786-0 = system: 786-0
Hs-578T = system: Hs-578T
HCT-15 = system: HCT-15
EKVX = system: EKVX
OVCAR-4 = system: OVCAR-4
SNB-75 = system: SNB-75
SF-295 = system: SF-295
SK-MEL-5 = system: SK-MEL-5
A549 = system: A549
HOP-92 = system: HOP-92
NCI/ADR-RES = system: NCI/ADR-RES
UO-31 = system: UO-31
SF-539 = system: SF-539
Malme-3M = system: Malme-3M
HL-60 = system: HL-60
U-251 = system: U-251
A498 = system: A498
SR = system: SR
SF-268 = system: SF-268
M14 = system: M14

Compound	GI50 (786-0)	GI50 (Hs-578T)	GI50 (HCT-15) [µM]	GI50 (EKVX)	GI50 (OVCAR-4)	GI50 (SNB-75)	GI50 (SF-295)	GI50 (SK-MEL-5)	GI50 (A549)	GI50 (HOP-92)	GI50 (NCI/ADR-RES)	GI50 (UO-31)	GI50 (SF-539)	GI50 (Malme-3M)	GI50 (HL-60)	GI50 (U-251)	GI50 (A498)	GI50 (SR)	GI50 (SF-268)	GI50 (M14)
C[C@]12CC[C@H]3[C@@H](CC[C@]4(O)C[C@@H](O)CC[C@]34CO)[C@@]1(O)CC[C@@H]2C1=CC(=O)OC1 [STROPHANTHIDOL]	1.42 µM (inactive)	1.46 µM (inactive)	2	1.39 µM (inactive)	1.12 µM (inactive)	4.02 µM (inactive)	1.21 µM (inactive)	0.979 µM (active)	0.453 µM (active)	2.78 µM (inactive)	1.51 µM (inactive)	1.9 µM (inactive)	1.15 µM (inactive)	2.21 µM (inactive)	1.64 µM (inactive)	2.7 µM (inactive)	1.61 µM (inactive)	0.861 µM (active)	0.982 µM (active)	3.01 µM (inactive)
CSc1cc(-c2ccccn2)nc(-c2ccccn2)c1	0.0546 µM (active)	3.1 µM (inactive)	0.0324	0.0906 µM (active)	0.0828 µM (active)	0.689 µM (active)	0.0566 µM (active)	0.126 µM (active)	0.137 µM (active)	0.0959 µM (active)	0.0944 µM (active)	0.0607 µM (active)	0.171 µM (active)	0.102 µM (active)	0.0492 µM (active)	0.0766 µM (active)	0.769 µM (active)	0.0405 µM (active)	0.0559 µM (active)	0.0695 µM (active)
c1ccc(C2=Nc3cccc4cccc(c34)N2)cc1	42.8 µM (inactive)	58.1 µM (inactive)	28.6	> 51.1 µM (inactive)	18.7 µM (inactive)	> 90.6 µM (inactive)	58.2 µM (inactive)	56.2 µM (inactive)	56.9 µM (inactive)	24.4 µM (inactive)	30.8 µM (inactive)	21.3 µM (inactive)	56.2 µM (inactive)	43.5 µM (inactive)	2.88 µM (inactive)	> 100 µM (inactive)	> 100 µM (inactive)	9.48 µM (inactive)	44.8 µM (inactive)	44.7 µM (inactive)
N#Cc1c(-c2nc3ccccc3s2)c(=O)oc2cc(O)ccc12	26.4 µM (inactive)	20 µM (inactive)	27.1	39.6 µM (inactive)	23.1 µM (inactive)	> 100 µM (inactive)	36.4 µM (inactive)	10.2 µM (inactive)	26.9 µM (inactive)	3.52 µM (inactive)	32.4 µM (inactive)	22 µM (inactive)	> 100 µM (inactive)	18.3 µM (inactive)	23.5 µM (inactive)	18 µM (inactive)	23 µM (inactive)	37.3 µM (inactive)	48.6 µM (inactive)	35.2 µM (inactive)
CCOC(=O)CCNC(=O)c1cc(C)cc2c1Oc1c(cc(C)cc1C(=O)NCCC(=O)OCC)S2	50 µM (inactive)	34 µM (inactive)	> 100	> 100 µM (inactive)	> 100 µM (inactive)	20.7 µM (inactive)	53.5 µM (inactive)	35.9 µM (inactive)	64 µM (inactive)	19.5 µM (inactive)	44.6 µM (inactive)	> 100 µM (inactive)	50.4 µM (inactive)	> 100 µM (inactive)	> 100 µM (inactive)	62.5 µM (inactive)	27.2 µM (inactive)	> 100 µM (inactive)	49.2 µM (inactive)	> 100 µM (inactive)
CCC(C#N)N(Cc1cccc(CN(C(C)=O)C(C#N)CC)c1)C(C)=O (stereo not given)	> 100 µM (inactive)	> 100 µM (inactive)	42.9	> 100 µM (inactive)	31.4 µM (inactive)	12 µM (inactive)	> 100 µM (inactive)	> 100 µM (inactive)	> 100 µM (inactive)	6.56 µM (inactive)	84.1 µM (inactive)	> 100 µM (inactive)	> 100 µM (inactive)	> 100 µM (inactive)	> 100 µM (inactive)	> 100 µM (inactive)	> 100 µM (inactive)	77.8 µM (inactive)	> 100 µM (inactive)	> 100 µM (inactive)
